The values that follow come from a melting point compilation (Tetko et al.; mined from patent text by program, amines drawn as free bases though some values may be those of a salt).

Some results are limits rather than exact numbers.

As a reminder, the melting point is the temperature, or range, at which the solid turns liquid. In turn, `COC1=C(OC)C(=O)C2=C(CCC(CCn3cnc4ccccc43)CC2)C1=O` returned a melting point of 159 to 163 °C.

As for `CC(C)(C)c1ccc(O)c(S(=O)(=O)CCl)c1`, the melting point is 94 to 95 °C. As for `CC1=C(c2ccc(OCC(=O)O)c(Cl)c2Cl)CCCC1=O`, the figure is 143 to 145 °C; as for `C[Si](C)(Cc1ccc(N(c2ccccc2)c2ccccc2)cc1)Cc1ccc(N(c2ccccc2)c2ccccc2)cc1`, 125 to 127 °C; as for `CNc1ccc2cnc(C(=O)c3ccc([N+](=O)[O-])c(C(=O)OC)c3)n2c1`, 183 °C. Turning to `Cc1c(OCC(F)(F)F)ccnc1CS(=O)c1nc2ccccc2n1N` (stereo not drawn), the melting point lay within 111 to 113 °C.

Consider `COC(=O)c1nn(C)nc1CO`, for which the melting point is 112 to 113 °C. As for `COc1cc2c(Nc3ccc(Cl)cc3F)ncnc2cc1OCCCC(=O)N1CCCC1`, the figure is 254 to 256 °C; as for `Cc1nc2c(c3c1[nH]c1cc(Cl)ccc13)C(=O)CC(C)(C)C2`, 248 to 250 °C. As for `CCc1c(C)sc2[nH]c(=O)c(=O)[nH]c12`, the figure is over 300 °C; as for `Fc1ccc(CNc2nc(Nc3cccc(C(F)(F)F)c3)nc(C(F)(F)F)n2)cc1`, 106 to 107 °C. For `Cc1oc2ccccc2c(=O)c1N` the value was 118 to 120 °C; for `OCCCNCc1cc(C(F)(F)F)cc(C(F)(F)F)c1`, 57 to 58 °C; for `CCCCCCCCCCN(O)C(=O)NCC(=O)OCC`, 70 to 71 °C. In the case of `CC(NC(=O)Cc1cc(F)cc(F)c1)C(=O)NC1(F)NC(=O)Cc2ccccc21` (stereo not drawn), the melting point fell in the range of 195 to 200 °C. As for `O=C(O)[C@@H](CSCc1ccccc1)N1C(=O)C=CC1=O`, the figure is 86 to 87 °C. For `CCc1cc(CC)c(NC(=S)NC2CCCCC2)c(CC)c1` the value was 97 to 99 °C; for `NC(=O)Cc1ccc2c(c1)CCc1cccnc1O2`, 164 to 165 °C; for `CCSc1nc(O)nn1CC`, 65 to 68 °C. Regarding `CC(C)(CCl)C(O)C(Oc1ccc(Cl)cc1)n1ccnc1` (stereo not drawn), the melting point was 120 to 125 °C. Consider `CC(C)Nc1cc(Cl)nc(Cl)n1`, for which the melting point fell in the range of 69 to 70 °C. As for `CCN(CC)C(=O)c1ccc(C)c(-c2nc(NC3CCN(C)CC3)nc3c2CNC(=O)N3c2c(F)cccc2F)c1`, the figure is 165 to 169 °C; as for `c1ccc2c(c1)CNc1cccnc1O2`, 172 to 174 °C; as for `CCOC(=O)c1nccn1Cc1ccc(Cl)cc1[N+](=O)[O-]`, 105 to 107 °C. As for `COc1ccc(-c2cc3cc(F)c(F)cc3[nH]2)cc1NS(=O)(=O)c1cccc(C#N)c1`, the figure is 239 to 242 °C. For `COC(=O)Cc1ccccc1NC(=S)N(C)C` the value was 110 to 113 °C; for `CCOC(=O)c1ccc(N2CCN(c3ccncc3)CC2)cc1`, 162 to 164 °C; for `CC(=O)SC(C(C)=O)c1ccccc1` (stereo not drawn), 31 to 32 °C. `CCOC(=O)c1csc(N2CCOC2=O)n1` gave a melting point of 157 to 159 °C. For `c1ccc(NCCCCCCCNc2ccccc2)cc1` the value was 52 to 54 °C; for `CC(=O)OC1CCC2(C)C(CCC3=C4C(=O)CC(C(C)CCCN(C)C)C4(C)CCC32)C1` (stereo not drawn), 122 to 124 °C; for `CN1CCN(c2nc3ccccc3n2CCOc2ccccc2)CC1`, 152 to 154 °C. In the case of `COCC(C)NC1=NS(=O)(=O)c2cc(Cl)cnc2N1` (stereo not drawn), the melting point is 150 to 156 °C.

Compound `Cc1ccc(C2CCN(C(=O)CCC(=O)c3ccc4c(c3)CN(C)CC4)CC2)cc1` yielded a melting point of 97 to 99 °C. For `Nc1cc(C(F)(F)F)cc(C(F)(F)F)n1` the value was 70.8 to 71.2 °C. As for `O=[N+]([O-])c1sccc1Nc1ccccc1`, the figure is 105 °C; as for `Cc1cc2c(c(C)c1SC#N)CCC(C)(C)O2`, 96 to 97 °C. `NS(=O)(=O)c1ccc(-n2nc(CCl)cc2-c2ccc(Cl)cc2)cc1` showed a melting point of 198 to 201 °C.

For `CN(C)CN=c1[nH]c2cnccc2s1`, the melting point was 125 to 127 °C. For `Cc1ccc(-c2c(C(=O)NCc3cc(C(F)(F)F)cc(C(F)(F)F)c3)n(C[C@H](C)CO)c(=O)c3ncccc23)cc1` the value was 123 to 125 °C. Compound `CC(C(=O)O)c1ccc2c(c1)C(=O)Cc1cc(O)ccc1S2` (stereo not drawn) had a melting point of 216 to 217 °C. As for `Cc1cccc(S(=O)(=O)n2c(CCC(=O)O)cc3cc(Cl)ccc32)c1`, the melting point fell in the range of 161 to 165 °C.

`CSC(C(N)=O)c1cccc(C(=O)c2ccccc2)c1N` (stereo not drawn): the melting point lay within 153 to 155 °C. As for `CCOC(=O)Cc1ccc(Nc2ccnc(Nc3cc(OC)c(OC)c(OC)c3)n2)cc1`, the figure is 143 to 144 °C; as for `CC(C)OC(=O)c1cc2c3ccccc3n(Cc3ccccc3)c2s1`, 88 to 89 °C; as for `Clc1cccc(Nc2ncnc3[nH]nc(NCc4ccc(-c5cncs5)cc4)c23)c1`, 235 °C. For `O=C(O)CCc1cc(-c2ccccc2)nn1Cc1ccc(Cl)cc1Cl` the value was 160 to 161 °C.

Turning to `COC(=O)c1ccc2sc(C)cc2c1`, the melting point lay within 97 to 98 °C.

`CC(C)(C(=O)O)c1ccc(C(=O)Nc2cn3cc(-c4ccoc4)ccc3n2)cc1` had a melting point of 307 to 309 °C. Turning to `CC(=O)Nc1cc(Cl)ccc1OCC#N`, the melting point lay in the range of 146 to 149 °C. `Cc1cc(-c2cccc(C(F)(F)F)c2)c2ncc(OCC(F)(F)F)nc2c1`: the melting point fell in the range of 114 to 117 °C. As for `COC1(C)CCc2ccc(O)cc2O1` (stereo not drawn), the figure is 107 to 108 °C; as for `O=C(O)Cc1ccccc1OCCCc1cn(-c2ccc(C(F)(F)F)cn2)nc1-c1ccccc1`, 133 to 134 °C; as for `CNc1cn(-c2cccnc2)nc1Cl`, 104 to 106 °C. As for `CCOC(=O)c1ncn(-c2nncs2)c1S(=O)(=O)NC(=O)Nc1nc(OC)cc(OC)n1`, the figure is 169 to 171 °C; as for `BrCCCCOc1ccc(OCCCCBr)cc1`, 89 to 91 °C; as for `CCNC(=O)c1c(Cl)cc(C=O)cc1[Si](C)(C)C`, 95 to 97 °C. For `O=S(=O)(c1ccccc1)c1ccc(Br)cc1` the value was 95 to 99 °C; for `CC1(C)COC(=S)N(Cc2ccccc2N)C1`, 90.8 to 92.1 °C. `CCOC(=O)/C=C/c1ccc(O)c(Cl)c1` gave a melting point of 104 to 106 °C. `COc1cccc(-c2nc3ccc(OC(F)(F)F)cc3[nH]2)c1`: the melting point was 192 to 194 °C. `CCCCC(=O)Nc1ccc(-c2cc3[nH]c(=O)[nH]c3nc2C)cc1`: the melting point was over 300 °C. In the case of `CC(=O)N(C)c1cc2c(nc(C)n2C)c2c1CCC(c1ccccc1)O2` (stereo not drawn), the melting point is 214 to 216 °C. For `O=C(O)c1ccc(C(O)(C(F)(F)F)C(F)(F)F)cc1C(=O)O`, the melting point fell in the range of 183 to 185 °C.

As for `CCCCCc1cc(OC)c(C2=C[C@H]3CC[C@]2(C(=O)O)C3(C)C)c(OC)c1`, the melting point is 84 to 86 °C. As for `COc1cc(OC)nc(OC(C(=O)O)C2c3ccccc3CC2C)n1` (stereo not drawn), the figure is 148 to 151 °C. For `COc1ccc(C(=O)Nc2ccccc2)c(C)c1` the value was 149 to 150 °C; for `CC(C)(C)c1cc(SCC(=O)Nc2c(Cl)cccc2Cl)cc(C(C)(C)C)c1O`, 168 to 170 °C.
